According to ChEMBL document CHEMBL1151888, “Synthesis, initial SAR and biological evaluation of 1,6-dihydroimidazo[4,5-d]pyrrolo[2,3-b]pyridin-4-amine derived inhibitors of IkappaB kinase” (Bioorg Med Chem Lett, 2009):
Values after ≈ are worked out from the molar mass of the structure shown. Active and inactive are the calls of the source. The calls are words filed in the database; no cut-off is given here.

Columns and labels:
PBMC = assay: Antiinflammatory activity in human PBMC assessed as inhibition of LPS-induced TNFalpha production treated 30 mins before LPS challenge measured after 6 hrs of LPS induction by ELISA; format: functional, cell-based
[1] = Inhibition of IKK1-catalyzed phosphorylation of GST-tagged IkappaBalpha fusion protein by fluorescence polarization assay
[2] = Half life in rat at 10 mg/kg, po; format: ADME, organism-based; design: dose 10 mg/kg, route oral; settings: in vivo
[3] = biological target: Inhibitor of nuclear factor kappa-B kinase subunit alpha (Homo sapiens) (UniProt O15111); assay: Inhibition of IKK2-catalyzed phosphorylation of GST-tagged IkappaBalpha fusion protein by fluorescence polarization assay
[4] = Half life in rat at 2 mg/kg, iv; format: ADME, organism-based; design: dose 2 mg/kg, route intravenous; settings: in vivo
[5] = Total AUC in rat at 10 mg/kg, po; format: ADME, organism-based; design: time AUCmax, dose 10 mg/kg, route oral; settings: in vivo
[6] = Volume of distribution at steady state in rat at 2 mg/kg, iv; format: ADME, organism-based; design: dose 2 mg/kg, route intravenous; settings: in vivo, read-out: Vdss
Serum [7] = assay: Drug level in Lewis rat serum at 10 mg/kg, po; format: ADME, organism-based; design: dose 10 mg/kg, route oral; settings: in vivo, read-out: Drug uptake
Blood [8] = assay: Antiinflammatory activity in Lewis rat whole blood assessed as inhibition of LPS-induced TNFalpha production at 17 uM treated 45 mins before LPS challenge measured after 4 hrs by ELISA; format: functional, tissue-based
[9] = Oral bioavailability in rat at 10 mg/kg; format: ADME, organism-based; settings: in vivo
[10] = Mean residence time in rat at 10 mg/kg, po; format: ADME, organism-based; design: dose 10 mg/kg, route oral; settings: in vivo
Blood [11] = assay: Antiinflammatory activity in Lewis rat whole blood assessed as inhibition of LPS-induced TNFalpha production treated 45 mins before LPS challenge measured after 4 hrs by ELISA; format: functional, tissue-based
Serum [12] = assay: Drug level in Lewis rat serum at 3 mg/kg, po; format: ADME, organism-based; design: dose 3 mg/kg, route oral; settings: in vivo, read-out: Drug uptake
[13] = Clearance in rat at 2 mg/kg, iv; format: ADME, organism-based; design: dose 2 mg/kg, route intravenous; settings: in vivo
Rattus norvegicus [14] = assay: Antiinflammatory activity in Lewis rat assessed as inhibition of LPS-induced TNFalpha production at 30 mg/kg, po administered 4 hrs before LPS challenge measured after 90 mins by ELISA; format: functional; design: scale not given: the % may be the effect or the level left
Serum [15] = assay: Drug level in Lewis rat serum at 30 mg/kg, po; format: ADME, organism-based; design: dose 30 mg/kg, route oral; settings: in vivo, read-out: Drug uptake
Rattus norvegicus [16] = assay: Antiinflammatory activity in po dosed Lewis rat assessed as inhibition of LPS-induced TNFalpha production administered 4 hrs before LPS challenge measured after 90 mins by ELISA; format: functional, organism-based
[17] = Mean residence time in rat at 2 mg/kg, iv; format: ADME, organism-based; design: dose 2 mg/kg, route intravenous; settings: in vivo
[18] = Total AUC in rat at 2 mg/kg, iv; format: ADME, organism-based; design: time AUCmax, dose 2 mg/kg, route intravenous; settings: in vivo
[19] = Aqueous solubility at pH 1.0; format: physicochemical; settings: aqueous solution
[20] = Solubility of the compound; format: physicochemical

Chain of Inhibitor of nuclear factor kappa-B kinase subunit alpha (Homo sapiens) (O15111 whole entry, looked up, the tested form may be a part): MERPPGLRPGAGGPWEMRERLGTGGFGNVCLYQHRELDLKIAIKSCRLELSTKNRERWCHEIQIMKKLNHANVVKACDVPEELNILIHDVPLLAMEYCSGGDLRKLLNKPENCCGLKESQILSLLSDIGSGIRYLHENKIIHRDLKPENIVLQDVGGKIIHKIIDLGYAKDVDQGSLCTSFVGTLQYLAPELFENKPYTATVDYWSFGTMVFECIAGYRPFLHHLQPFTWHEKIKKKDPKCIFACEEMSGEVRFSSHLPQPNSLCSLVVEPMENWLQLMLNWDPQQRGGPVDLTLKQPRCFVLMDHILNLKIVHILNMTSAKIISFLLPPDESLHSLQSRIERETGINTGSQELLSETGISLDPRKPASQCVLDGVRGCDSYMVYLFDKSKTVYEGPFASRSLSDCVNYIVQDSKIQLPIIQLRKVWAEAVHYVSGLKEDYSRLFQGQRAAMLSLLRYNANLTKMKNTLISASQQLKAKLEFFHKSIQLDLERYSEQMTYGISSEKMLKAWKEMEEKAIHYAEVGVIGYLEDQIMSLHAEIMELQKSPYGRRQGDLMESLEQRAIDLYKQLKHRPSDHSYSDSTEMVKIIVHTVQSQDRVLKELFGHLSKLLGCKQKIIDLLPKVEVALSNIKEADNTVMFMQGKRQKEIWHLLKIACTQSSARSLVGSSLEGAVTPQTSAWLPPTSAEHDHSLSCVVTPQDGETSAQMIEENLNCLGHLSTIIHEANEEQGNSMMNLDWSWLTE

| IC50 [1] | Compound | IC50 (PBMC) | other results |
| --- | --- | --- | --- |
|  | CNc1nc2[nH]c(-c3cccc(F)c3)cc2c2c1ncn2C | 153 nM |  |
| 22 nM | CNc1nc2[nH]c(-c3cccc(CNC(=O)CCC(N)=O)c3)cc2c2c1ncn2C | 1000 nM |  |
|  | CNc1nc2[nH]c(-c3ccccc3F)cc2c2c1ncn2C | 931 nM |  |
|  | CNc1nc2[nH]c(-c3ccccc3)cc2c2c1ncn2C | 800 nM |  |
| 12 nM | CNc1nc2[nH]c(-c3cccc(CNC(=O)CCOC)c3)cc2c2c1ncn2C | 370 nM | half-life [2]: 11 h; IC50 [3]: 2620 nM; half-life [4]: 4.8 h; AUC [5]: 71.7 µM·h; Vd [6]: 0.2 L/kg; concentration (Serum [7]): 3000 nM; Activity (Blood [8]): Active; bioavailability [9]: 31%; MRT [10]: 14.7 h; IC50 (Blood [11]): 8000 nM; concentration (Serum [12]): 900 nM; clearance [13]: 1.8 mL/min/kg; Activity (Rattus norvegicus [14]): 85%; concentration (Serum [15]): 17000 nM; Activity (Rattus norvegicus [16]): Dose-dependent effect; MRT [17]: 2.1 h; AUC [18]: 46.9 µM·h; solubility [19]: 1820 µg/mL (≈ 4.65 mM) |
| 14 nM | CNc1nc2[nH]c(-c3cccc(CNC(C)=O)c3)cc2c2c1ncn2C | 372 nM | IC50 [3]: 633 nM |
| 8 nM | CNc1nc2[nH]c(-c3cccc(OC)c3)cc2c2c1ncn2C | 320 nM |  |
| 7 nM | CNc1nc2[nH]c(-c3cccc(C#N)c3)cc2c2c1ncn2C | 86 nM | solubility [20]: < 5 µg/mL |
|  | CNc1nc2oc(-c3ccccc3)nc2c2c1ncn2C | 390 nM |  |
|  | CNc1nc2sc(-c3ccccc3)nc2c2c1ncn2C | 310 nM |  |
|  | CNc1nc2[nH]c(-c3cccc(CN)c3)cc2c2c1ncn2C | 340 nM |  |
| 43 nM | CNc1nc2[nH]c(-c3ccc(F)cc3)cc2c2c1ncn2C | 538 nM | IC50 [3]: 1730 nM |
|  | CNc1nc2[nH]c(-c3cccc(CNC(=O)CO)c3)cc2c2c1ncn2C | 478 nM |  |
| 79 nM | CNc1nc2[nH]c(-c3cccc(CNC(=O)CN(C)C)c3)cc2c2c1ncn2C | 2000 nM |  |
|  | CNc1nc2c(nc(-c3ccccc3)n2C)c2c1ncn2C | 446 nM |  |
